In article PMC9844538 (Nature chemical biology, 2022):
Starred links: 1 amine or outer side, 2 acyl side, 3 side chain; linkers in the order of their positions; H or OH if unused. Positions of bridges follow the written chain, without caps; N, C: chain ends. Non-standard residues stand in square brackets, D forms with d. Residues, ends and D or L forms follow the SMILES beside them. *: point of attachment. βAsp = O=C(O)[C@H](CC(=O)[*:2])N[*:1]; His(π-Me) = Cn1cncc1C[C@H](N)C(=O)O; For = O=C*

What was measured:
[1] = tested on: Mycobacterium tuberculosis H37Rv mc^26020 gyrA G88C; assay: MIC, broth microdilution; type: cell-based
[2] = tested on: Mycobacterium tuberculosis H37Rv mc^26020 gyrA G88S; assay: MIC, broth microdilution; type: cell-based
[3] = tested on: M. tuberculosis (GyrA D94N); type: cell-based, Mycobacterium tuberculosis
[4] = tested on: M. tuberculosis bacA (Rv1819c) mutants (L469P, L470P and S577R); type: cell-based, Mycobacterium tuberculosis

Molecule: COc1c(N2C[C@@H]3CCCN[C@@H]3C2)c(F)cc2c(=O)c(C(=O)O)cn(C3CC3)c12 [moxifloxacin]
- susceptibility of GyrA G88C mutant [1]: resistant
- susceptibility of GyrA G88S mutant [2]: more susceptible

Molecule: C[C@@H](O)[C@H](NC(=O)[C@H](Cc1c[nH]c2ccccc12)NC=O)C(=O)N[C@H](CCCNC(=N)N)C(=O)N[C@@H]1C(=O)N[C@@H](Cc2cncn2C)C(=O)N[C@H](C(=O)O)CC(=O)N[C@H](CO)C(=O)N[C@@H](Cc2ccccc2)C(=O)NCC(=O)N[C@H](CCCNC(=N)N)C(=O)N[C@@H](CO)C(=O)N[C@H](C(=O)O)CC(=O)O[C@@H]1C [evybactin] (For-WT[dR]T[His(π-Me)][βAsp][dS]FG[dR]S[βAsp]; ester 4-C)
- effect of GyrA D94N mutation on susceptibility [3]: did not have any effect

Molecule: bleomycin
- MIC (after shift) [4]: 1 mg/L
